What all share (type): binding
Test [1] concerns the target 178 full-length kinases (Homo sapiens, UniProt P19784). The test can be described thus: NanoBRET single-dose fractional occupancy profiling of kinase/Nluc library in live HEK293 cells (Table S1). More on the design: receptor occupancy: dose or concentration left out as unconfirmed; Occupancy, % Replicate 1 / Occupancy, % Replicate 2: unit of the concentration uncertain. The conditions noted are these: CSNK2A2, Nluc C, probe 5 at 1 (unit uncertain). In general terms: Bioluminescence resonance energy transfer reports proximity on the nanometre scale.

Test [2] has as its target 178 full-length kinases (Homo sapiens, UniProt P53779). The test is described as above. To be noted: JNK3, Nluc C, probe 5 at 1 (unit uncertain). On the set-up: receptor occupancy: dose or concentration left out as unconfirmed; Occupancy, % Replicate 1 / Occupancy, % Replicate 2: unit of the concentration uncertain.
Test [3] deals with 178 full-length kinases (Homo sapiens, UniProt Q13627). The description is as above. On the set-up: receptor occupancy: dose or concentration left out as unconfirmed; Occupancy, % Replicate 1 / Occupancy, % Replicate 2: unit of the concentration uncertain. To be noted: DYRK1A, Nluc N, probe 5 at 1 (unit uncertain).
Test [4] has as its target 178 full-length kinases (Homo sapiens, UniProt Q5S007). The description is as above. More on the design: receptor occupancy: dose or concentration left out as unconfirmed; Occupancy, % Replicate 1 / Occupancy, % Replicate 2: unit of the concentration uncertain. To be noted: LRRK2, Nluc C.
For test [5], the target named is 178 full-length kinases (Homo sapiens, UniProt Q9H0K1). The test is described as above. More on the design: receptor occupancy: dose or concentration left out as unconfirmed; Occupancy, % Replicate 1 / Occupancy, % Replicate 2: unit of the concentration uncertain. To be noted: SNF1LK2 (NP_056006), Nluc orientation N, probe 6 at 0.1 (unit uncertain).
Test [6] deals with full-length kinase/Nluc fusion proteins (Homo sapiens, UniProt O14965). The test can be described thus: Apparent affinity (EC50) of energy transfer probes by titration onto live HEK293 cells expressing kinase/Nluc fusions (Table S1). To be noted: AURKA, Nluc C; read-out: Probe EC50.
The target of test [7] is full-length kinase/Nluc fusion proteins (Homo sapiens, UniProt P04629). The test is described as above. To be noted: NTRK1, Nluc C; read-out: Probe EC50.
Test [8] addresses full-length kinase/Nluc fusion proteins (Homo sapiens, UniProt P07949). The test is described as above. The conditions noted are these: RET, Nluc C; read-out: Probe EC50.
In test [9] the target is full-length kinase/Nluc fusion proteins (Homo sapiens, UniProt P53779). Described as above. The conditions noted are these: JNK3, Nluc C; read-out: Probe EC50.
Test [10] deals with full-length kinase/Nluc fusion proteins (Homo sapiens, UniProt Q00535). The description is as above. The conditions noted are these: CDK5, Nluc C; read-out: Probe EC50.
The target of test [11] is full-length kinase/Nluc fusion proteins (Homo sapiens, UniProt Q12851). The description is as above. To be noted: MAP4K2, Nluc N; read-out: Probe EC50.
Test [12] concerns the target full-length kinase/Nluc fusion proteins (Homo sapiens, UniProt Q13627). The test is described as above. To be noted: DYRK1A, Nluc N; read-out: Probe EC50.
The target of test [13] is full-length kinase/Nluc fusion proteins (Homo sapiens, UniProt Q16659). The description is as above. To be noted: MAPK6, Nluc N; read-out: Probe EC50.
Test [14] has as its target full-length kinase/Nluc fusion proteins (Homo sapiens, UniProt Q8IVH8). The test is described as above. The conditions noted are these: MAP4K3, Nluc N; read-out: Probe EC50.
Test [15] concerns the target full-length kinase/Nluc fusion proteins (Homo sapiens, UniProt Q8IWQ3). Described as above. The conditions noted are these: BRSK2, Nluc N; read-out: Probe EC50.
Test [16] addresses full-length kinase/Nluc fusion proteins (Homo sapiens, UniProt Q8IYT8). The test is described as above. To be noted: ULK2 (NP_001136082), Nluc orientation N; read-out: Probe EC50.
Test [17] deals with full-length kinase/Nluc fusion proteins (Homo sapiens, UniProt Q8TD19). The test is described as above. The conditions noted are these: NEK9, Nluc N; read-out: Probe EC50.
The target of test [18] is full-length kinase/Nluc fusion proteins (Homo sapiens, UniProt Q9BVS4). The test is described as above. The conditions noted are these: RIOK2, Nluc N; read-out: Probe EC50.
Test [19] deals with full-length kinase/Nluc fusion proteins (Homo sapiens, UniProt Q9NSY1). Described as above. The conditions noted are these: BMP2K, Nluc N; read-out: Probe EC50.
The target in test [20] is full-length kinase/Nluc fusion proteins (Homo sapiens, UniProt Q9UQB9). The test is described as above. To be noted: AURKC, Nluc C; read-out: Probe EC50.
For test [21], the target named is full-length kinase/Nluc fusion proteins (Homo sapiens, UniProt P10721). The description is as above. To be noted: KIT, Nluc C; read-out: Probe EC50.
Test [22] has as its target full-length kinase/Nluc fusion proteins (Homo sapiens, UniProt P29317). The test is described as above. To be noted: EPHA2, Nluc C; read-out: Probe EC50.
Test [23] addresses full-length kinase/Nluc fusion proteins (Homo sapiens, UniProt P51813). Described as above. The conditions noted are these: BMX, Nluc C; read-out: Probe EC50.
Test [24] concerns the target full-length kinase/Nluc fusion proteins (Homo sapiens, UniProt P54753). Described as above. The conditions noted are these: EPHB3, Nluc C; read-out: Probe EC50.
Test [25] addresses full-length kinase/Nluc fusion proteins (Homo sapiens, UniProt P54756). The description is as above. The conditions noted are these: EPHA5, Nluc C; read-out: Probe EC50.
Test [26] has as its target full-length kinase/Nluc fusion proteins (Homo sapiens, UniProt P54764). Described as above. The conditions noted are these: EPHA4, Nluc C; read-out: Probe EC50.
The target in test [27] is full-length kinase/Nluc fusion proteins (Homo sapiens, UniProt Q08345). The description is as above. The conditions noted are these: DDR1, Nluc C; read-out: Probe EC50.
Test [28] deals with full-length kinase/Nluc fusion proteins (Homo sapiens, UniProt Q15759). The test is described as above. The conditions noted are these: MAPK11, Nluc N; read-out: Probe EC50.
For test [29], the target named is full-length kinase/Nluc fusion proteins (Homo sapiens, UniProt Q9Y2K2). Described as above. To be noted: SIK3 (NP_079440), Nluc orientation N; read-out: Probe EC50.

Read-outs that look alike come from different tables or passages of the source.

Chain of 178 full-length kinases (Homo sapiens, UniProt P19784) (P19784 whole entry): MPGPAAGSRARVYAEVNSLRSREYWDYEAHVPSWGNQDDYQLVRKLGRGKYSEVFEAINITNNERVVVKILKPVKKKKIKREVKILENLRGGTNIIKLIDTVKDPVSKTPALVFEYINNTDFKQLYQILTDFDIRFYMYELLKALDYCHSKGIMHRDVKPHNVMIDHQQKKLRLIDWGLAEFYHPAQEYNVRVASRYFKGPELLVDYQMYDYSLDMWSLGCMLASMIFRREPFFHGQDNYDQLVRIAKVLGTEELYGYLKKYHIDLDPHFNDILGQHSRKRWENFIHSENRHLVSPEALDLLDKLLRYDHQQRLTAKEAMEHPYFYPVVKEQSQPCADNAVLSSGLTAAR
Chain of 178 full-length kinases (Homo sapiens, UniProt Q9H0K1) (Q9H0K1 whole entry, the tested form may be a part): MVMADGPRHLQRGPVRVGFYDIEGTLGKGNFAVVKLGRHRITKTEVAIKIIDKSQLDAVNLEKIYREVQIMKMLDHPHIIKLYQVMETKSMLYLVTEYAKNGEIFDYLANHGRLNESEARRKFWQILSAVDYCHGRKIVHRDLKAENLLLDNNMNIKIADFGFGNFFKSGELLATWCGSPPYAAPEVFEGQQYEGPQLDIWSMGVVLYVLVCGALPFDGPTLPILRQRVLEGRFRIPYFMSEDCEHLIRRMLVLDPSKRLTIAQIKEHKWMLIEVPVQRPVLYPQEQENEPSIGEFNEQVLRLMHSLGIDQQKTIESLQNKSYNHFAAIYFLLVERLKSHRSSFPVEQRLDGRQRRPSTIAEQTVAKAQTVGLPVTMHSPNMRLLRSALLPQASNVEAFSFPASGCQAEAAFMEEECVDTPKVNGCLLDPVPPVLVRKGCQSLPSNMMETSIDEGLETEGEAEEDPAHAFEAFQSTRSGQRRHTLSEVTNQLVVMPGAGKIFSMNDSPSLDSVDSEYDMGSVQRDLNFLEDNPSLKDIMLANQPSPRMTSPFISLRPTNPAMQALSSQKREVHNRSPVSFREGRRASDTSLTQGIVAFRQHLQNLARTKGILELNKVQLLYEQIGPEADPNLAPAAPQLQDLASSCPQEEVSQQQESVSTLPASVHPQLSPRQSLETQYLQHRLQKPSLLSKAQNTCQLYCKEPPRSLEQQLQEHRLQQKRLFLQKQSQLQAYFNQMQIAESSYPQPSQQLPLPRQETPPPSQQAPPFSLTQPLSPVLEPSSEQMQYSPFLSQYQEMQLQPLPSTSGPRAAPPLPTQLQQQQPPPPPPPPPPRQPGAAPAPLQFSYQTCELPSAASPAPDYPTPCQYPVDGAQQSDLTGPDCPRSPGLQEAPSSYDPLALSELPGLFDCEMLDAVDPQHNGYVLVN
Chain of 178 full-length kinases (Homo sapiens, UniProt Q5S007) (Q5S007 whole entry): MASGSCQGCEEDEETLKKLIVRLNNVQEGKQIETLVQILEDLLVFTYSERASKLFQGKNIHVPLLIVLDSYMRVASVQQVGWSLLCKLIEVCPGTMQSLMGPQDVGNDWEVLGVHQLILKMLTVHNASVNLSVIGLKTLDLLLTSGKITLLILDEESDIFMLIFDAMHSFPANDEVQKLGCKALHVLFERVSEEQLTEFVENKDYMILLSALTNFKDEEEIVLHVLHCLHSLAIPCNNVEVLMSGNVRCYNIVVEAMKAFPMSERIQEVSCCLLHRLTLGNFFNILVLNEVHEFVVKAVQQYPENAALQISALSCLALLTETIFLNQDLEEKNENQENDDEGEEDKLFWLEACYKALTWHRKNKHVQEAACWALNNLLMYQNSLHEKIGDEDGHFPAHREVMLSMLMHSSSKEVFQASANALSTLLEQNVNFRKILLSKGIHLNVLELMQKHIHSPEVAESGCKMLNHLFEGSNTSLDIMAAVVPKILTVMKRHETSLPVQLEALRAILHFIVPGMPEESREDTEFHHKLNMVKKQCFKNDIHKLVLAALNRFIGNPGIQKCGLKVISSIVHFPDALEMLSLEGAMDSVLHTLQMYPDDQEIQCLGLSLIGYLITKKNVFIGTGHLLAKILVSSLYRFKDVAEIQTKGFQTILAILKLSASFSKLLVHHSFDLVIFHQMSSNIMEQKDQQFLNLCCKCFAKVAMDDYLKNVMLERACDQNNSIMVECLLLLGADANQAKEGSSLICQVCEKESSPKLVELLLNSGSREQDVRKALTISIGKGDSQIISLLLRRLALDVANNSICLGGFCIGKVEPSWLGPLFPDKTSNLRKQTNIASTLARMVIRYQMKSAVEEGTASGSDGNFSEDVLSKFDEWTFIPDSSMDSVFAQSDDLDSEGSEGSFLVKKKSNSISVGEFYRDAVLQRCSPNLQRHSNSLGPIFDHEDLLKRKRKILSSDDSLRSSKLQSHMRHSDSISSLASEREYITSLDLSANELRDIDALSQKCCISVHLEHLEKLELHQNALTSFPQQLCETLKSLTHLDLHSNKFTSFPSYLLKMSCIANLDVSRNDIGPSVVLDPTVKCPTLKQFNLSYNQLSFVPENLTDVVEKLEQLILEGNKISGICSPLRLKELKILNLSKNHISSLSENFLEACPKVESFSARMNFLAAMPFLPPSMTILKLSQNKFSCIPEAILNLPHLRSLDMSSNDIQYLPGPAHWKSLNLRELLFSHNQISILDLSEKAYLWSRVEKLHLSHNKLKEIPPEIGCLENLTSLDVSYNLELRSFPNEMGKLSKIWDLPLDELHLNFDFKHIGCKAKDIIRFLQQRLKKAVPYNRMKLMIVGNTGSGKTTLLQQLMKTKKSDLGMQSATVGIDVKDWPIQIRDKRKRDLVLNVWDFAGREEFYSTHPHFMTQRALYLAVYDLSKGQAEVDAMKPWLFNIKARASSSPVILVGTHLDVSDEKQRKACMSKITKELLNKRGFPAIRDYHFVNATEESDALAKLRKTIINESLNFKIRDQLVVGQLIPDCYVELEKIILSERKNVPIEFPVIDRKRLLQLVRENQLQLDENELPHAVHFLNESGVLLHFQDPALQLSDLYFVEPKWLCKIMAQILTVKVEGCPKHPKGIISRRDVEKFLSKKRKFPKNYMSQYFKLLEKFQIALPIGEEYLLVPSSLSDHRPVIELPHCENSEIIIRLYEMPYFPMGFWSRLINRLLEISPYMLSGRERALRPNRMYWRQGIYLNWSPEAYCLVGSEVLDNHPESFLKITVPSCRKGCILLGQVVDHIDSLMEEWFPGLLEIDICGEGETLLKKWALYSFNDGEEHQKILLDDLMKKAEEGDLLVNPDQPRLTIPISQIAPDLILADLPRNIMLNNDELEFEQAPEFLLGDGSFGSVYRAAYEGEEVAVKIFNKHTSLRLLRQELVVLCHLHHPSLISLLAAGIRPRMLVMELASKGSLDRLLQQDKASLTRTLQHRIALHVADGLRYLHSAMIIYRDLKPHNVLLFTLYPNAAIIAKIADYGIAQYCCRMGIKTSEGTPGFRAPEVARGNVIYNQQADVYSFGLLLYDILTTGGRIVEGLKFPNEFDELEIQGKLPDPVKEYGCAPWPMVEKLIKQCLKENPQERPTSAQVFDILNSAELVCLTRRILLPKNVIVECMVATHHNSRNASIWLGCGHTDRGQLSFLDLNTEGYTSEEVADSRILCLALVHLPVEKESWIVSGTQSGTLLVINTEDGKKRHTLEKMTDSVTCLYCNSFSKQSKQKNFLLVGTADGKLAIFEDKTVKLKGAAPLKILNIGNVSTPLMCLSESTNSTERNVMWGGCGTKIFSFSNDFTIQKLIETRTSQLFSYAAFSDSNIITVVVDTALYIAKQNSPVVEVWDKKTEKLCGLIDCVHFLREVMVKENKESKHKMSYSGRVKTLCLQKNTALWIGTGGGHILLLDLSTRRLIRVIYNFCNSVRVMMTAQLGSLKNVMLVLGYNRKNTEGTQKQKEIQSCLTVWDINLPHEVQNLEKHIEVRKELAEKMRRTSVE
Chain of 178 full-length kinases (Homo sapiens, UniProt P53779) (P53779 whole entry): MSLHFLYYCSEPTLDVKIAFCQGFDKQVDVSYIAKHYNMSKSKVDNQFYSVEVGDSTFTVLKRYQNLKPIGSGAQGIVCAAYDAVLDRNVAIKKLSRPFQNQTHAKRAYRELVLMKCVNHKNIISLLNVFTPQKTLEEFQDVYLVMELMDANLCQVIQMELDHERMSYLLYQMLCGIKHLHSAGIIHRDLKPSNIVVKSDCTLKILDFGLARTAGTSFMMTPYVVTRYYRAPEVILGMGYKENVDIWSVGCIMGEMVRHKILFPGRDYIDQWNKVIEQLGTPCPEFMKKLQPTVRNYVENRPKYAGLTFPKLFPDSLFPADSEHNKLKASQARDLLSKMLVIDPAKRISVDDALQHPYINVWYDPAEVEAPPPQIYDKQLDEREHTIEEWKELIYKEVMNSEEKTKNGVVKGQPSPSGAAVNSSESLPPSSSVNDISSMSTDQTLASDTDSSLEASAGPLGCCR
Chain of full-length kinase/Nluc fusion proteins (Homo sapiens, UniProt Q12851) (Q12851 whole entry, the tested form may be a part): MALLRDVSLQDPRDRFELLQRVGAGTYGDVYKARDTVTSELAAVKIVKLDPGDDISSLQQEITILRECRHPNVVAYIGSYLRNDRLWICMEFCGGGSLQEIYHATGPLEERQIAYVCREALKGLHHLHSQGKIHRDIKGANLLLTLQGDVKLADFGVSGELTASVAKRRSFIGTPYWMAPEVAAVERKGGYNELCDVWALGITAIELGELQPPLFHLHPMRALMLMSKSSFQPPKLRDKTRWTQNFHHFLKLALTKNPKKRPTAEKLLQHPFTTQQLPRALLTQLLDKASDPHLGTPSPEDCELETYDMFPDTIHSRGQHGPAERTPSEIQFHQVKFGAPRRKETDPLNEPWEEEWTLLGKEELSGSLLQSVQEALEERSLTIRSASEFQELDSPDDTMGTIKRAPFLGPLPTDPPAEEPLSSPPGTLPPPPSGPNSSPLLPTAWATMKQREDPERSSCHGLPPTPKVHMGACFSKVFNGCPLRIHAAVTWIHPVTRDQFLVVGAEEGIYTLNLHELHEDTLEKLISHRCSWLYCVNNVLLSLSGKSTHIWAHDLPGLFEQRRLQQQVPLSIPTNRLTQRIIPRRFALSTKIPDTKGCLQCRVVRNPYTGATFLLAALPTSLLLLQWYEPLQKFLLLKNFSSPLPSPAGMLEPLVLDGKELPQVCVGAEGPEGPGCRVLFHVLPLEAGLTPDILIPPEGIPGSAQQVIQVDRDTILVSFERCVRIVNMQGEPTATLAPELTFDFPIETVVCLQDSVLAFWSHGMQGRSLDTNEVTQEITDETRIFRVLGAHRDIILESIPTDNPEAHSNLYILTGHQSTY

Take `C[C@@H](Oc1cc(-c2cnn(C3CCNCC3)c2)cnc1N)c1c(Cl)ccc(F)c1Cl` [Crizotinib]: the “Occupancy, % Replicate 1” value on 178 full-length kinases [1], at 178 full-length kinases [2], at 178 full-length kinases [3] and at 178 full-length kinases [5] (replicate 1) was “No Binding” each time. Besides, the “Occupancy, % Replicate 2” value at 178 full-length kinases [1], at 178 full-length kinases [2], at 178 full-length kinases [3] and at 178 full-length kinases [5] (replicate 2) was “No Binding” throughout. The receptor occupancy on 178 full-length kinases [4] (read-out: Occupancy, % Replicate 1) came out at 14%; on 178 full-length kinases [4] (read-out: Occupancy, % Replicate 2), 31%.

One may read the EC50 as the concentration that produces a half-maximal response. For the compound `CNC(=O)c1ccccc1Nc1nc(Nc2ccc(N3CCN(C(=O)CCOCCOCCOCCOCCNC(=O)CCc4ccc5n4[B-](F)(F)[N+]4=C(c6ccc[nH]6)C=CC4=C5)CC3)cc2)ncc1Cl` [Energy Transfer Probe 5, 2-((2-((4-(4-(1-amino-3,6,9,12-tetraoxapentadecan-15-oyl)piperazin-1-yl)phenyl)amino)-5-chloropyrimidin-4-yl)amino)-N-methylbenzamide-NanoBRET 590], the EC50 is 40 nM in [6]; 400 nM in test [7]; 500 nM in [8]; over 1000 nM in test [9]; over 1000 nM in [10]; over 1000 nM in [11]. Further, the EC50 in test [12] is over 1000 nM; in test [13] it was 400 nM; in test [14], over 1000 nM; in test [15], over 1000 nM; in test [16] it was over 1000 nM; in test [17] it was over 1000 nM. Moreover, the figures for the EC50 in [18], in test [19] and in test [20] were over 1000 nM, over 1000 nM and 20 nM, respectively.

Regarding `Cc1nc(Nc2ncc(C(=O)Nc3c(C)cccc3Cl)s2)cc(N2CCN(CCOCCNC(=O)CCc3ccc4n3[B-](F)(F)[N+]3=C(c5ccc[nH]5)C=CC3=C4)CC2)n1` [Energy Transfer Probe 6, 2-((6-(4-(2-(2-aminoethoxy)ethyl)piperazin-1-yl)-2-methylpyrimidin-4-yl)amino)-N-(2-chloro-6-methylphenyl)thiazole-5-carboxamide-NanoBRET 590], the EC50 in test [21] came out at 200 nM; in test [22], 60 nM; in [23], 300 nM; in [24] it was 200 nM; in test [25] it was 30 nM; in test [26], 40 nM. In addition, the EC50 in [27] is 40 nM; in test [28], 200 nM; in test [29] it was over 1000 nM.

Source of the values: publication PMC5814754, “Quantitative, Wide-Spectrum Kinase Profiling in Live Cells for Assessing the Effect of Cellular ATP on Target Engagement” (Cell Chemical Biology, 2018).
